Source: paper PMC3349722, “Prediction of Drug-Target Interactions and Drug Repositioning via Network-Based Inference” (PLoS Computational Biology, 2012)
Structures can show the parent of a compound that is named as a salt. Where two headings read alike, the source gives them in different places.

Experiments:
[1] = target: ERβ (Homo sapiens, UniProt Q92731); assay: Yeast two-hybrid system-based assay (ERβ LBD/SRC1, α-galactosidase), agonist and antagonist mode; format: cell-based; settings: for Inhibitive Ratio% (10 μM), ERβ: antagonist assay with 1 nM E2; for IC50: read-out: IC50 on ERβ (antagonistic activity)
[2] = target: T1, ERα (Homo sapiens, UniProt P03372); assay: Yeast two-hybrid system-based assay (ERα LBD/SRC1, α-galactosidase), agonist and antagonist mode; format: cell-based; settings: for Agonistic activities (10 μM), ERα: DMSO = 1; for Inhibitive ratio % (10 μM), ERα: antagonist assay with 1 nM E2; for EC50: agonist testing
T1 sequence (P03372 301-553): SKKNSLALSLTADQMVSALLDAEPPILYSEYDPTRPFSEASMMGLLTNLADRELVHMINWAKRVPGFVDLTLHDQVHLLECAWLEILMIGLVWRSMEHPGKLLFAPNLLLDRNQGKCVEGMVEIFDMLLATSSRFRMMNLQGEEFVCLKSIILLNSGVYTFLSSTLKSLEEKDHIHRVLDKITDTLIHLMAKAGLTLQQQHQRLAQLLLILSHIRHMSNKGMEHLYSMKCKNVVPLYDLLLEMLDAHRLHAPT

[3] = target: T2, human recombinant DPP-IV (Homo sapiens, UniProt P27487); assay: Dipeptidyl peptidase-IV inhibition assay (DPP-IV Drug Discovery Kit, fluorimetric); format: biochemical; settings: for Inhibition Ratio (%) to DPP-IV: test concentration not given
T2 construct: purchased Biomol
Method: The inhibitory effects of compounds on human recombinant DPP-IV was determined using a DPP-IV Drug Discovery Kit (Biomol, USA) according to the manufacturer's instructions. The activity of DPP-IV was detected in a Synergy™ 2 Multi-Mode Microplate Reader (BioTek) at an excitation wavelength of 380 nm and an emission wavelength of 460 nm. […] IC50 values were determined using the GraphPad Prism 4 software with three independent determinations.
Table S4. The inhibitive activities profiles of nine approved drugs for dipeptidyl peptidase -IV
(DPP -IV ) enzyme inhibition assay. The inhibitory effects of compounds on human recombinant
DPP4 was determined using a DPP -IV Drug Discovery Kit (Biomol, USA) according to the
manufacturer ’s instructions. The DPP-IV Drug Discovery Kit is a complete assay system designed
to screen DPP 4 small molecule inhibitors. The fluorimetric assay is based on the cleavage of
7- a mino -4-methylcoumarin (AMC) moiety from peptide substrate (H-Gly-P ro-AMC), which
increases its fluorescence intensity at 460 nm. Compounds dilutions were prepared from stock in
DMSO and diluted with assay buffer for inhibition assay. A 40 μL solution of DPP -IV enzyme in
assa y buffer was incubated with 10μ L of various concentrations of test compoundsolutions for 10
min at room temperature. The reaction was initiated b y the addition of 50 μL of H-Gly-P ro- AMC
with a final concentration of 5 μM. The activity of DPP4 was detected in a Synergy™ 2
Multi-Mode Microplate Reader (BioTek) at an excitation wavelength of 380 nm and an emission
wavelength of 460 nm. […] IC 50 values were
determined by using the G raphP ad Prism 4 software with three independent determinations.

[4] = tested on: ERα and ERβ; assay: Yeast two-hybrid system-based assay, summary statements on ER (subtype not separated)
[5] = tested on: MDA-MB-231 cells; assay: MTT assay of cell proliferation; format: cell-based; settings: Homo sapiens, MDA-MB-231 breast cancer cell line, 24 h, read-out: Antiproliferative activity IC50
Method: Cell proliferation was quantified by MTT assay. MDA-MB-231 cells were seeded at a density of 1.5×10^4 in a 96-well plate with DMEM/F12 supplemented with 10% charcoal stripped FBS without phenol red, and then incubated with the tested compounds in humidified air containing 5% CO2 at 37°C. After incubation for 24 h, 20 µL of 5 mg/mL MTT was added and incubated for another 4 h. Then the converted dye was dissolved in 100 µL of DMSO and the absorbance was measured at 570 nm.

T2 sequence (P27487 whole entry): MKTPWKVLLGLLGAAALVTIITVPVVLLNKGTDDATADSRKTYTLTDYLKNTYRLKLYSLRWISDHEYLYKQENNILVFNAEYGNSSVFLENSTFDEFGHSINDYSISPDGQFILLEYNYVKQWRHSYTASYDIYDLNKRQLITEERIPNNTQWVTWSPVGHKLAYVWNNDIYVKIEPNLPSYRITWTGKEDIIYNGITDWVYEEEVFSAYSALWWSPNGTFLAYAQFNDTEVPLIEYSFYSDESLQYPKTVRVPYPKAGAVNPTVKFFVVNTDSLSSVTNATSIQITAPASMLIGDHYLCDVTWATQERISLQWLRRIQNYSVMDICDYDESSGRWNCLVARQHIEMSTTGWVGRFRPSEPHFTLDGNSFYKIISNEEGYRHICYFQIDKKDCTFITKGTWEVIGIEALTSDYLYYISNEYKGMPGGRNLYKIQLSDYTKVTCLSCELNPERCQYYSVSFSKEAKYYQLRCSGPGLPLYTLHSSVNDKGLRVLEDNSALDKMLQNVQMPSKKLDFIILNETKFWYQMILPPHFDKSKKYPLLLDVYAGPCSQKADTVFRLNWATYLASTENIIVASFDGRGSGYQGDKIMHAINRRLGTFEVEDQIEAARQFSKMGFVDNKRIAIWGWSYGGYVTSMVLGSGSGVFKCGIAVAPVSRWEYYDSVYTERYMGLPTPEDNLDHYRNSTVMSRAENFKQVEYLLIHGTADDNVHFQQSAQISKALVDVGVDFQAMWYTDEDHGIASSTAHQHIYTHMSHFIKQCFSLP
ERβ, sequence (Q92731 248-510): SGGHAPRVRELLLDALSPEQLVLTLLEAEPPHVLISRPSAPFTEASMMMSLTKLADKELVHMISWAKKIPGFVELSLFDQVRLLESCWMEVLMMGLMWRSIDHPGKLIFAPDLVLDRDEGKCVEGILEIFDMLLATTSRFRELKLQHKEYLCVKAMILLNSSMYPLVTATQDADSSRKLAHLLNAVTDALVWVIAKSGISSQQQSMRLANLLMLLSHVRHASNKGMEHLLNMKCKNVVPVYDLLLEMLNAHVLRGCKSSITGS

Molecule: 17-hydroxyprogesterone
- Inhibitive Ratio% (10 μM), ERβ [1]: 13.01%
- Agonistic activities (10 μM), ERβ ([1]; DMSO = 1): 0.961

Molecule: CCC1(c2ccc(N)cc2)CCC(=O)NC1=O (racemic) [Dl-aminoglutethimide]
- Agonistic activities (10 μM), ERα [2]: 0.956

Molecule: N[C@@H]1C[C@H]1c1ccccc1 (racemic) [Tranylcypromine]
- Inhibitive ratio % (10 μM), ERα [2]: 4.3%
- Agonistic activities (10 μM), ERα [2]: 0.988
- Inhibitive Ratio% (10 μM), ERβ [1]: 0%
- Agonistic activities (10 μM), ERβ ([1]; DMSO = 1): 0.965

Molecule: CC(C)(C#N)c1cc(Cn2cncn2)cc(C(C)(C)C#N)c1 [Anastrozole]
- Agonistic activities (10 μM), ERβ ([1]; DMSO = 1): 1.011

Molecule: NC(=O)N1c2ccccc2C=Cc2ccccc21 [Carbamazepine]
- Inhibition Ratio (%) to DPP-IV [3]: 19.67%

Molecule: CN(C)CCCN1c2ccccc2Sc2ccc(Cl)cc21 [Chlorpromazine HCl]
- Inhibitive Ratio% (10 μM), ERβ [1]: 3.11%
- Agonistic activities (10 μM), ERβ ([1]; DMSO = 1): 0.981

Molecule: CN/C(=N/CCSCc1nc[nH]c1C)NC#N [Cimetidine]
- Inhibitive ratio % (10 μM), ERα [2]: 2.4%
- Agonistic activities (10 μM), ERα [2]: 1.018

Molecule: O=C(O)Cc1ccccc1Nc1c(Cl)cccc1Cl [Diclofenac]
- Agonistic activities (10 μM), ERβ ([1]; DMSO = 1): 0.846
- IC50 [1]: 2.32 µM
- IC50 or EC50 values on ER [4]: less than 10 μM

Molecule: C[C@]12CC[C@@H]3c4ccc(O)cc4CC[C@H]3[C@@H]1CC[C@@H]2O [E2, estradiol]
- Agonistic activities, ERβ, E2 control ([1]; 1 nM, DMSO = 1): 5.77

Molecule: CC(=O)OCC(CCn1cnc2cnc(N)nc21)COC(C)=O [Famciclovir]
- Inhibitive Ratio% (10 μM), ERβ [1]: 0%
- Agonistic activities (10 μM), ERβ ([1]; DMSO = 1): 0.894

Molecule: CC(C)C(=O)Nc1ccc([N+](=O)[O-])c(C(F)(F)F)c1 [Flutamide]
- Inhibitive Ratio% (10 μM), ERβ [1]: 2.83%
- Agonistic activities (10 μM), ERβ ([1]; DMSO = 1): 0.949

Molecule: Cc1ccc(C)c(OCCCC(C)(C)C(=O)O)c1 [Gemfibrozil]
- Inhibition Ratio (%) to DPP-IV [3]: 17.35%

Molecule: CCC(C)n1ncn(-c2ccc(N3CCN(c4ccc(OCC5COC(Cn6cncn6)(c6ccc(Cl)cc6Cl)O5)cc4)CC3)cc2)c1=O (stereo not shown) [Itraconazole]
- Inhibitive ratio % (10 μM), ERα [2]: 8.19%
- Agonistic activities (10 μM), ERα [2]: 4.132
- EC50 ([2]; REC50 on ERα (concentration showing 50% of the maximum agonistic activity of E2), relative to E2): 0.32 µM
- EC50 ([2]; read-out: EC50 on ERα (agonistic activity)): 0.2 µM
- Inhibitive Ratio% (10 μM), ERβ [1]: 51.99%
- Agonistic activities (10 μM), ERβ ([1]; DMSO = 1): 1.890
- IC50 ([1]; antagonist assay): 0.28 µM
- IC50 or EC50 values on ER [4]: less than 1 μM
- IC50 or EC50 values on ER ([4]; listed as itraconazole): less than 10 μM

Molecule: CC(=O)N1CCN(c2ccc(OCC3COC(Cn4ccnc4)(c4ccc(Cl)cc4Cl)O3)cc2)CC1 (stereo not shown) [Ketoconazole]
- Agonistic activities (10 μM), ERβ ([1]; DMSO = 1): 0.853
- IC50 [1]: 0.79 µM
- IC50 [5]: 8.95 µM
- IC50 or EC50 values on ER [4]: less than 1 μM
- IC50 or EC50 values on ER ([4]; listed as ketoconazole): less than 10 μM

Molecule: CS(=O)(=O)CCNCc1ccc(-c2ccc3ncnc(Nc4ccc(OCc5cccc(F)c5)c(Cl)c4)c3c2)o1 [Lapatinib]
- Inhibition Ratio (%) to DPP-IV [3]: 39.64%
- Inhibitive ratio % (10 μM), ERα [2]: 14.01%
- Agonistic activities (10 μM), ERα [2]: 0.995

Molecule: N#Cc1ccc(C(c2ccc(C#N)cc2)n2cncn2)cc1 [Letrozole]
- Inhibitive Ratio% (10 μM), ERβ [1]: 0%
- Agonistic activities (10 μM), ERβ ([1]; DMSO = 1): 0.846

Molecule: CN(C)C(=O)C(CCN1CCC(O)(c2ccc(Cl)cc2)CC1)(c1ccccc1)c1ccccc1 [Loperamide]
- Inhibitive ratio % (10 μM), ERα [2]: 6.18%
- Agonistic activities (10 μM), ERα [2]: 0.934
- Inhibitive Ratio% (10 μM), ERβ [1]: 0%
- Agonistic activities (10 μM), ERβ ([1]; DMSO = 1): 0.910

Molecule: CC[C@H](C)C(=O)O[C@H]1C[C@@H](C)C=C2C=C[C@H](C)[C@H](CC[C@@H]3C[C@@H](O)CC(=O)O3)[C@H]21 [Lovastatin]
- Inhibition Ratio (%) to DPP-IV [3]: 9.49%

Molecule: COc1ccc2[nH]cc(CCNC(C)=O)c2c1 [Melatonin]
- Inhibitive Ratio% (10 μM), ERβ [1]: 0%
- Agonistic activities (10 μM), ERβ ([1]; DMSO = 1): 0.914

Molecule: CC#C[C@]1(O)CC[C@H]2[C@@H]3CCC4=CC(=O)CCC4=C3[C@@H](c3ccc(N(C)C)cc3)C[C@@]21C [Mifepristone]
- Inhibitive ratio % (10 μM), ERα [2]: 0%
- Agonistic activities (10 μM), ERα [2]: 1.463
- Inhibitive Ratio% (10 μM), ERβ [1]: 27.16%
- Agonistic activities (10 μM), ERβ ([1]; DMSO = 1): 1.080

Molecule: CC(C)(O)c1ccccc1CC[C@@H](SCC1(CC(=O)O)CC1)c1cccc(/C=C/c2ccc3ccc(Cl)cc3n2)c1 [Montelukast]
- Inhibition Ratio (%) to DPP-IV [3]: 49.7%
- IC50 ([3]; three independent determinations): 9.79 µM

Molecule: C=CCN1CC[C@]23c4c5ccc(O)c4O[C@H]2C(=O)CC[C@@]3(O)[C@H]1C5 [Naloxone HCl]
- Inhibitive Ratio% (10 μM), ERβ [1]: 0%
- Agonistic activities (10 μM), ERβ ([1]; DMSO = 1): 1.051

Molecule: COC(=O)C1=C(C)NC(C)=C(C(=O)OCCN(C)Cc2ccccc2)C1c1cccc([N+](=O)[O-])c1 (stereo not shown) [Nicardipine]
- Inhibition Ratio (%) to DPP-IV [3]: 21.24%
- Inhibitive ratio % (10 μM), ERα [2]: 15.21%
- Agonistic activities (10 μM), ERα [2]: 0.962

Molecule: Nc1nc2c(ncn2CCC(CO)CO)c(=O)[nH]1 [Penciclovir]
- Inhibitive Ratio% (10 μM), ERβ [1]: 0%
- Agonistic activities (10 μM), ERβ ([1]; DMSO = 1): 0.947

Molecule: CC[C@@H]1C(=O)OC[C@@H]1Cc1cncn1C.Cl [Pilocarpine HCl]
- Agonistic activities (10 μM), ERα [2]: 1.008

Molecule: O=c1[nH]c2ccccc2n1C1CCN(CCCC(c2ccc(F)cc2)c2ccc(F)cc2)CC1 [Pimozide]
- Inhibitive ratio % (10 μM), ERα [2]: 4.58%
- Agonistic activities (10 μM), ERα [2]: 0.955

Molecule: CCc1ccc(CCOc2ccc(CC3SC(=O)NC3=O)cc2)nc1 (stereo not shown) [Pioglitazone]
- Inhibition Ratio (%) to DPP-IV [3]: 18.63%

Molecule: CCC(C)(C)C(=O)O[C@H]1C[C@@H](C)C=C2C=C[C@H](C)[C@H](CC[C@@H]3C[C@@H](O)CC(=O)O3)[C@H]21 [Simvastatin]
- IC50 [5]: 1.49 µM

Molecule: NS(=O)(=O)Cc1noc2ccccc12 [Zonisamide]
- Agonistic activities (10 μM), ERβ ([1]; DMSO = 1): 1.029
